Target: T1, asialoglycoprotein receptor (ASGPR) (Homo sapiens, UniProt P07306)
T1 sequence (P07306 1-291): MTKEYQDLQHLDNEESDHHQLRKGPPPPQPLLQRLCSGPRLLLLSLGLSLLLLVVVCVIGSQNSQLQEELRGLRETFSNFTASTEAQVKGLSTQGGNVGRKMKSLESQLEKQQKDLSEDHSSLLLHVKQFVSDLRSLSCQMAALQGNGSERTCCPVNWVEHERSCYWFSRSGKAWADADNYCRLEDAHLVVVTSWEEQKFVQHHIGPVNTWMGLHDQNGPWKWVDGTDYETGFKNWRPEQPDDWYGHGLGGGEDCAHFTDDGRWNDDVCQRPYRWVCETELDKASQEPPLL
Assay: Surface plasmon resonance binding to immobilized ASGPR
Details: calculated from 1/Kads

For `CC(=O)N[C@H]1C(O)O[C@H](CO)[C@H](O)[C@@H]1O` (mixture of isomers) [GalNAc, N-acetylgalactosamine], which “calculated ligand efficiency (LE)” value is on record?
Its value is 0.41.

Reference: PMC6991140 (Journal of the American Chemical Society, 2017)
